Laboratory results: ChEMBL document CHEMBL1201862, “PubChem BioAssay data set” (2004)
Calls of active or inactive are those of the source.

Experiments:
[1] = Luminescence Cell-Based Dose Retest to Confirm Inhibitors of Cancer Stem Cells. [Related pubchem assays (depositor defined):AID2717, AID2721]; format: functional; details: Homo sapiens
Cytochrome P450 2D6 = Cytochrome P450 2D6 (Homo sapiens, UniProt P10635);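 further: CYP2D6 member of a cytochrome P450 panel assay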
Cytochrome P450 2C9 = Cytochrome P450 2C9 (Homo sapiens, UniProt P11712)
Cytochrome P450 1A2 = target: T1, Cytochrome P450 1A2 (Homo sapiens, UniProt P05177);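 further: PubChem cytochrome P450 panel assay, CYP1A2 panel member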
T1 sequence (P05177 whole entry): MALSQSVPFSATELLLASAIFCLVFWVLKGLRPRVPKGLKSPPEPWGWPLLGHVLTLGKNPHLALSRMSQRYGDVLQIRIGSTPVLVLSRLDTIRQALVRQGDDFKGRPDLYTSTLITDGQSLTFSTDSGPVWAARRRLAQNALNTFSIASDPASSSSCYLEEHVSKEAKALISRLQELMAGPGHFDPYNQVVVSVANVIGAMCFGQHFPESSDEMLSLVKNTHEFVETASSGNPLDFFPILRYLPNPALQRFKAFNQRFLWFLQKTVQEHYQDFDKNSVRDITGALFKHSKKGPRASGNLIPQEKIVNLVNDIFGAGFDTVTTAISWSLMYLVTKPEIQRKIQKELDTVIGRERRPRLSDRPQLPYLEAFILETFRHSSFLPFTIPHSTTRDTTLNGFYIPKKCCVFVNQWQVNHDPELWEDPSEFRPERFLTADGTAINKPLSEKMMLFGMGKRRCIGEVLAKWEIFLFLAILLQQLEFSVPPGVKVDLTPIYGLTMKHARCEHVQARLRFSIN

Cytochrome P450 2C19 = Cytochrome P450 2C19 (Homo sapiens, UniProt P33261); experiment: Cytochrome panel assay with activity outcomes. Panel member name: p450-cyp2c19 Compounds with AC50 equal or less than 10 uM are considered active; format: functional
Streptokinase A = target: T2, Streptokinase A (Streptococcus pyogenes serotype M1, UniProt P10520); experiment: S. pyogenes streptokinase expression inhibitors, potency, dose response, plasminogen activation absorbance, OD405 (AID 1914); format: functional, Streptococcus pyogenes M1 GAS;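 further: secreted streptokinase activity via plasminogen activation per viability signal from cell pellet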
T2 sequence (P10520 whole entry): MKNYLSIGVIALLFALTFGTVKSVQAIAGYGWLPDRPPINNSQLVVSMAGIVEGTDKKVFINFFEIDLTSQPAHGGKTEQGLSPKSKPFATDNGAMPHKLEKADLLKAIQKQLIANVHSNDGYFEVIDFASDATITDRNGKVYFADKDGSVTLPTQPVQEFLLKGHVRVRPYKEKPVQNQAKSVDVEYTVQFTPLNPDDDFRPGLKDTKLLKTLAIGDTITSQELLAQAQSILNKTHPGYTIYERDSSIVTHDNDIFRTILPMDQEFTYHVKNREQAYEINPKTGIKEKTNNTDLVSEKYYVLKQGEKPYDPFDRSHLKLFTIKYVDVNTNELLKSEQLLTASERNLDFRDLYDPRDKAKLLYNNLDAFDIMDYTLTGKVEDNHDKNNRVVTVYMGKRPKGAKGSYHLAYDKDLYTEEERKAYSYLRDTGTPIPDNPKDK

Streptococcus = experiment: Group A Streptococcus viability loss, dose response, counter-screen for streptokinase expression inhibitor project, luminescence, BacTiterGlo (AID 1915); format: functional, organism-based;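 further: potency for reduction of bacterial viability or growth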
[2] = tested on: Streptococcus sp. 'group A'; experiment: growth inhibition of control SK(-) GAS strain, dose response, counter-screen for streptokinase expression inhibitor project, luminescence, kanamycin, BacTiterGlo, confirmation (AID 1900); format: functional, organism-based
[3] = HEp-2 cell cytotoxicity, dose response, cytotoxicity control for RSV inhibitor project, HTS (AID 2410); format: functional; details: human respiratory syncytial virus
[4] = target: T3, Heat shock factor protein 1 (Mus musculus, UniProt P38532); experiment: inhibition of MG132-induced HSE-luciferase signal, confirmation, cell-based, NIH3T3, luminescence, dose retest (AID 2382); format: functional;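 further: NIH3T3 fibroblasts with HSF1-driven luciferase reporter stressed by proteasome inhibitor MG132; luminescence from HSF1-driven luciferase expression after 8 hours of MG132 stress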
T3 sequence (P38532 whole entry): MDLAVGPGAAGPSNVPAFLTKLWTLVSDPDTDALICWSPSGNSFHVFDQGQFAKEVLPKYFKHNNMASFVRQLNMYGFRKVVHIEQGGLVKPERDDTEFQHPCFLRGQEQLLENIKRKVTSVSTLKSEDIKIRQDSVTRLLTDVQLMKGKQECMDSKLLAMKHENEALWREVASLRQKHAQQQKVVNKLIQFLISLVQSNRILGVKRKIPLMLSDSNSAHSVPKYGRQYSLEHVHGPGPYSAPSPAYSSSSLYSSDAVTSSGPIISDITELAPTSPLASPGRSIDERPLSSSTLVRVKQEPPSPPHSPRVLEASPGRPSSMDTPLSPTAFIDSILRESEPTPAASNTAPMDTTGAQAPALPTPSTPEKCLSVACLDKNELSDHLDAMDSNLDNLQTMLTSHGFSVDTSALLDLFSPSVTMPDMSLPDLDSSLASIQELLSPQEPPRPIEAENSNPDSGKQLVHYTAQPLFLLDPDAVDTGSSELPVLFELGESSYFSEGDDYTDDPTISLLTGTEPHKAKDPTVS

Chain of Cytochrome P450 2C9 (P11712 whole entry): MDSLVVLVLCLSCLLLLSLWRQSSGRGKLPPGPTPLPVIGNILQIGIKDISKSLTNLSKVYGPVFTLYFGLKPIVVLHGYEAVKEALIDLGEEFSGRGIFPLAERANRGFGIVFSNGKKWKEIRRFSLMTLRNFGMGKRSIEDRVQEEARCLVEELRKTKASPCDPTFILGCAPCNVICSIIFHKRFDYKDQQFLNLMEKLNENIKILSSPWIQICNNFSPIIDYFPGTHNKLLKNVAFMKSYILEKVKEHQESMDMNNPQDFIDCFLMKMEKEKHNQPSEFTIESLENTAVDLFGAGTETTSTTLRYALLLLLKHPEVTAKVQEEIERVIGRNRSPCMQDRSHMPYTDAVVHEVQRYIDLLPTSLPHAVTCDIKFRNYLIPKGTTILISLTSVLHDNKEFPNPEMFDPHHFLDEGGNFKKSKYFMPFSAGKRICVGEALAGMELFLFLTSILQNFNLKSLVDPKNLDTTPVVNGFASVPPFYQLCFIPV
Chain of Cytochrome P450 2D6 (P10635 whole entry): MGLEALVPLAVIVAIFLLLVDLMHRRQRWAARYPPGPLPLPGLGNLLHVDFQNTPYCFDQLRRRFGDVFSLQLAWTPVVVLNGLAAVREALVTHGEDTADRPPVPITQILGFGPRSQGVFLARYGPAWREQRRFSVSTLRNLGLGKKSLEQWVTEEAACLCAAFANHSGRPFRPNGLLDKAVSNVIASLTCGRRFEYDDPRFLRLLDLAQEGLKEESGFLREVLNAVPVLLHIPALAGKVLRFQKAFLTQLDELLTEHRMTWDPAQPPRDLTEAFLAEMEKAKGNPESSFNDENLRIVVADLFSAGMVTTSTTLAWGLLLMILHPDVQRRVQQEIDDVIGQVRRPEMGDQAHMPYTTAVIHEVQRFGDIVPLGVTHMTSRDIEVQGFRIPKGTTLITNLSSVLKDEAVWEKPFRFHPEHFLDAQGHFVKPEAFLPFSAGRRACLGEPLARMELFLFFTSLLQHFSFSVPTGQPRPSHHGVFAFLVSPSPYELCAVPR
Chain of Cytochrome P450 2C19 (P33261 whole entry): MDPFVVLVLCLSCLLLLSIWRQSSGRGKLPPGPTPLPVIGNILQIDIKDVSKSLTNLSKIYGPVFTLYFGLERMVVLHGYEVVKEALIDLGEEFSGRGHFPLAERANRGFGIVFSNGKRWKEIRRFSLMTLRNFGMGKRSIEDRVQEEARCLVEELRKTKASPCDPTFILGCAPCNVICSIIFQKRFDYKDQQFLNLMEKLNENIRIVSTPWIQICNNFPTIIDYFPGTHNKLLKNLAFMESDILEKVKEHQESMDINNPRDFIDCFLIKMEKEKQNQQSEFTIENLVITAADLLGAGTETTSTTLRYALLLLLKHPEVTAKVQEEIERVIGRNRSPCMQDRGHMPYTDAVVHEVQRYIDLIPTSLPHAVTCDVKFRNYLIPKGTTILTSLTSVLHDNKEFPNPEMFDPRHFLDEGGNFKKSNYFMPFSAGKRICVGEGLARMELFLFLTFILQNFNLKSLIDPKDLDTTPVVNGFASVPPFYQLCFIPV

SMILES: C1=C(c2sc3ccccc3c2-c2ccc(OCCN3CCOCC3)cc2)CCCC1
- AC50 [1]: 2.71 µM (active)

SMILES: O=C(Nc1cccc(C(F)(F)F)c1)C1CCCN1S(=O)(=O)c1cccc2cccnc12 (configuration not stated)
- AC50 (Cytochrome P450 2D6): 31.6 µM (inconclusive)
- AC50 (Cytochrome P450 2C9): 5.62 µM (inconclusive)
- AC50 (Cytochrome P450 1A2): 3.16 µM (inconclusive)

SMILES: CC(C)C(NS(=O)(=O)c1cccc2nsnc12)C(=O)N1CCc2ccccc2C1 (configuration not stated)
- AC50 (Cytochrome P450 2C19; read-out: AC50): 6.31 µM (inconclusive)
- AC50 (Cytochrome P450 2C9): 3.55 µM (inconclusive)

SMILES: COCCCN1C(=O)C(O)=C(C(=O)c2ccc(OC(C)C)c(C)c2)C1c1ccncc1 (configuration not stated)
- AC50 (Cytochrome P450 2C19; read-out: AC50): 11.2 µM (inconclusive)
- AC50 (Cytochrome P450 2C9): 35.5 µM (inconclusive)

SMILES: C/C(CC(=O)Nc1ccc(Cl)c(C(F)(F)F)c1)=N\NC(=O)c1cc2ccccc2cc1O
- AC50 [1]: 8.61 µM (active)
- EC50 (Streptokinase A): > 150 µM (not active)
- EC50 (Streptococcus): 8.14 µM (active)
- EC50 [2]: 1.57 µM (active)

SMILES: N#C/C(=C\c1ccc(N2CCCC2)c([N+](=O)[O-])c1)c1nc2ccccc2[nH]1
- AC50 (Cytochrome P450 1A2): 11.2 µM (inconclusive)

SMILES: CN=C(S)N1CCN(c2ccc(Cl)c(Cl)c2)CC1
- CC50 [3]: 21.3 µM (active)

SMILES: COc1ccc(C2Nc3ccccc3C(=O)N2Cc2ccco2)cc1COc1ccc([N+](=O)[O-])cc1 (configuration not stated)
- AC50 (Cytochrome P450 2D6): 3.98 µM (inconclusive)

SMILES: CS(=O)(=O)Nc1cccc(-c2nc(NCCN3CCOCC3)c3ccccc3n2)c1
- AC50 (Cytochrome P450 1A2): 25.1 µM (inconclusive)

SMILES: Oc1ccccc1-c1nnc(-c2ccc(C(F)(F)F)cc2)o1
- AC50 (Cytochrome P450 2C19; read-out: AC50): 39.8 µM (inconclusive)
- EC50 [4]: > 195 µM (not active)

SMILES: Cc1nc(N/N=C/c2ccc(O)cc2)c2cnn(-c3ccccc3)c2n1
- CC50 [3]: 42.8 µM (active)

SMILES: CN1CCN(c2ncnc3ccc(-c4ccccc4Cl)cc23)CC1
- AC50 (Cytochrome P450 2D6): 25.1 µM (inconclusive)

SMILES: CCCNC(=O)N1N=C(c2ccc(N)cc2)c2cc3c(cc2[C@H]1C)OCO3
- AC50 (Cytochrome P450 2D6): 25.1 µM (inconclusive)

SMILES: COc1ccc(CN2C(=O)CN(C3CCCCCC3)C(=O)C2c2ccc(OC)c(OC)c2)cc1 (configuration not stated)
- AC50 (Cytochrome P450 1A2): 35.5 µM (inconclusive)

SMILES: CC(CO)(CO)/N=C\c1cc(I)cc(I)c1O
- AC50 (Cytochrome P450 2C9): 6.31 µM (inconclusive)
- AC50 (Cytochrome P450 1A2): 1.58 µM (inconclusive)

SMILES: CC(C)OC(=O)c1cc2c(OC[C@@H](O)CNC(C)(C)C)cccc2[nH]1
- AC50 (Cytochrome P450 2D6): 15.8 µM (inconclusive)
- AC50 (Cytochrome P450 1A2): 31.6 µM (inconclusive)

SMILES: O=C(c1ccc(F)cc1)C1CCN(CCn2c(=S)[nH]c3ccccc3c2=O)CC1 [ALTANSERIN]
- AC50 (Cytochrome P450 2D6): 10 µM (inconclusive)
- AC50 (Cytochrome P450 2C9): 25.1 µM (inconclusive)
- AC50 (Cytochrome P450 1A2): 15.8 µM (inconclusive)

SMILES: CN(C)CCNC(=O)C(C(=O)c1ccc(F)cc1)n1ccccc1=O (configuration not stated)
- AC50 (Cytochrome P450 1A2): 0.631 µM (inconclusive)

SMILES: COCCNC(=S)N/N=C(\C)c1ccc(OC(F)F)cc1
- CC50 [3]: > 50 µM (active)

SMILES: CCn1c(C)[n+](CCCS(=O)(=O)[O-])c2cc(Cl)c(Cl)cc21
- AC50 (Cytochrome P450 2C19): inconclusive

SMILES: CCCc1cc(O)nc(SCC(=O)Nc2sc(C(N)=O)c(C)c2C(=O)OCCOC)n1
- AC50 [1]: 3.6 µM (active)

SMILES: Cc1cc(-c2ccc(Cl)cc2)oc(=O)c1NC(=O)c1ccccc1
- AC50 (Cytochrome P450 2C19; read-out: AC50): 3.55 µM (inconclusive)

SMILES: CCc1nc(N[C@H](C(=O)O)C(C)CC)c2oc3ccccc3c2n1 (some centres not stated)
- AC50 (Cytochrome P450 2C19): inconclusive
- AC50 (Cytochrome P450 2C9): 0.00891 µM (inconclusive)

SMILES: CN(CC(=O)Nc1ccc(Cl)cc1)CC(=O)Nc1cccc(Br)c1
- CC50 [3]: 16.2 µM (active)
